Results from paper PMC10538174, “Bioactivity-Guided Synthesis: In Silico and In Vitro Studies of β-Glucosidase Inhibitors to Cope with Hepatic Cytotoxicity” (Molecules, 2023).

How the values were obtained:
[1] = tested on: β-glucosidase from E. coli; test: β-glucosidase enzyme inhibition assay (p-nitrophenyl-β-D-glucopyranoside substrate); assay type: biochemical; conditions: for % inhibition ± SD against β-glucosidase: test concentration not given; for IC50: E. coli enzyme, pH 6.8, 37 °C, read at 405 nm, read-out: IC50 ± SEM against β-glucosidase
Method: β-glucosidase inhibition activity of the synthesized compounds, with an enzyme concentration of […] were used for the inhibition assay. The IC50 values were determined at different concentrations using Graph Pad Prism v5.0.
(§1) All of the reported results are the mean of three independent experiments, and those compounds showing > 50% inhibition were further analyzed for their IC50 values at different dilutions. The IC50 values were calculated by using nonlinear regression analysis and GraphPad Prism version 8. SEM = standard error mean.
The inhibition analysis of β-glucosidase was carried out, where p-nitrophenyl-β-D-glucopyranoside was used as a substrate, and the β-glucosidase from E. coli (purchased from Sigma Aldrich) was dissolved in buffer solution (pH 6.8). A total volume of 60 µL of sodium phosphate buffer, 10 µL of each test sample (dissolved in 1% DMSO), and 10 µL of enzyme (1.5 U/mL) were mixed together and incubated for 5 min at 37 °C, followed by the addition of 10 µL of p-nitrophenyl-β-D-glucopyranoside (dissolved in a buffer solution). Incubation of the mixture was carried out for 30 min, and 10 µL of 0.2 M sodium carbonate solution was subsequently added. DMSO (1%) was used as a negative control. The p-nitrophenol produced from p-nitrophenyl-β-D-glucopyranoside was measured at a λmax of 405 nm in order to evaluate the activity of the test compounds against β-glucosidase. The %inhibition of β-glucosidase was calculated by the following formula: %Inhibition=(100−sample/control×100
Graph Pad Prism v5.00 was used to find out the IC50 (concentration at which 50% of enzymatic activity was inhibited by the test sample) value from a second-order regression analysis.

HepG2 cells = test: MTT cell viability assay on HepG2 hepatic cancer cells; assay type: cell-based, human; conditions: for viability at 200 µg / IC50: Homo sapiens, HepG2, 48 h, MTT, 48 h; for viability at 200 µg: concentration of 200 µg, read-out: % viability ± SD against HepG2 cancer cell lines; for IC50: read-out: IC50 ± SEM against HepG2 cancer cell line
Method: as §1
The human liver cells were cultivated in Dulbecco’s modified Eagle medium (DMEM), in which 100 U/mL penicillin, 10% fetal bovine, and 100 µg/mL streptomycin were added and kept at 37 °C in a […] carbon dioxide-induced humidified environment. The human liver cells prepared as per the above procedure were then treated with synthesized compounds diluted to a 0.05% DMSO concentration.
By using an MTT assay, the %viability of cancer cells was evaluated. According to the standard procedure, the HepG2 cells were treated with various dosages of synthesized compounds for 48 h each. The cells were then incubated for 4 h at 37 °C with 10 μMTT reagent (5 mg/mL). Next, 150 μL of DMSO was added to dissolve the formazan crystals. The λmax was recorded at […] in a microplate reader (Thermos Scientific, Waltham, MA, USA).

| Structure (SMILES) | IC50 (HepG2 cells) | IC50 [1] | % inhibition ± SD against β-glucosidase [1] | viability at 200 µg (HepG2 cells) | β-glucosidase inhibition better than the standard ([1]; versus acarbose) | more anti-tumor activity against the HepG2 cell line than the known drug (HepG2 cells; versus thalidomide) |
| --- | --- | --- | --- | --- | --- | --- |
| O=C(O)c1ccc(NC(=O)c2ccccc2C(=O)O)cc1 [Compound 1c] |  | 1.26 µM | 76 ± 1.41% | 35.6% | 40% |  |
| C[C@H]1O[C@H](O[C@H]2[C@H](O)[C@@H](O)[C@@H](O[C@H]3[C@H](O)[C@@H](O)C(O)O[C@@H]3CO)O[C@@H]2CO)[C@H](O)[C@@H](O)[C@@H]1N[C@H]1C=C(CO)[C@@H](O)[C@H](O)[C@H]1O (stereo partly shown) [Acarbose, reference compound] |  | 2.15 µM |  |  |  |  |
| O=C(O)c1ccccc1C(=O)Nc1ccc([N+](=O)[O-])cc1 [Compound 2c] |  | 2.17 ± 0.11 µM | 68 ± 1.41% | 29.4% |  |  |
| O=C1c2ccccc2C(=O)N1Cc1ccccc1 [Compound 6c] |  |  | 45.0 ± 1.41% |  |  |  |
| O=C(O)c1ccc(N2C(=O)c3ccccc3C2=O)cc1 [Compound 9c] |  |  | 61.5 ±0.12% |  |  |  |
| O=C(O)c1ccccc1C(=O)Nc1ccc(Cl)cc1 [Compound 4c] |  |  | 42 ± 1.42% | 26.9% |  |  |
| O=C1c2ccccc2C(=O)N1c1ccccc1 [Compound 12c] |  |  | 45.2 ±0.4% | 27.2% |  |  |

Second part, led by results:

| IC50 (HepG2 cells) | IC50 [1] | Structure (SMILES) | % inhibition ± SD against β-glucosidase [1] | viability at 200 µg (HepG2 cells) | β-glucosidase inhibition better than the standard ([1]; versus acarbose) | more anti-tumor activity against the HepG2 cell line than the known drug (HepG2 cells; versus thalidomide) |
| --- | --- | --- | --- | --- | --- | --- |
| 48 ± 2.18 µM |  | O=C1c2ccccc2C(=O)N1c1ccccc1F [Compound 10c] | 50.5 ± 2.31% | 20.5 ± 4.2% |  |  |
| 12.8 ± 2.33 µM | 6.98 ± 0.31 µM | Cc1ccc(N2C(=O)c3ccccc3C2=O)cc1 [Compound 7c] | 63.5 ± 0.71% | 21.4 ± 3.4% |  |  |
|  | 1.26 ± 0.11 µM | O=C(O)c1ccccc1C(=O)N1CCN(CCN2C(=O)c3ccccc3C2=O)CC1 [Compound 5c] | 71 ± 1.2% | 42.2 ± 2.2% |  |  |
|  | 3 ± 0.17 µM | O=C(O)c1ccccc1C(=O)Nc1ccc(Cl)c(C(F)(F)F)c1 [Compound 3c] | 70 ± 2.82% | 12.8% |  | greater than 9% |
|  | 9.57 ± 0.22 µM | Cc1c(N2C(=O)c3ccccc3C2=O)c(=O)n(-c2ccccc2)n1C [Compound 11c] | 56.5 ± 2.45% | 40.8 ± 2.5% |  |  |
|  | 4.78 ± 0.27 µM | O=C(O)CCCCCN1C(=O)c2ccccc2C1=O [Compound 8c] | 70.5 ± 2.12% | 24.8% |  |  |
